Earlier results in patent US10144908B2, “Liquid soap having enhanced antibacterial activity” (Conopco, Inc., priority 2013, dated 2018).

Settings: in water at 25° C.

For `O=C([O-])CC(O)(CC(=O)[O-])C(=O)[O-].[Ag+].[Ag+].[Ag+]` [Silver citrate], the Ksp is listed as 2.5e-16 mol/L.
